Experimental data reported in patent US20240132484A1, “BROAD SPECTRUM ANTIVIRAL COMPOUNDS TARGETING THE SKI COMPLEX” (priority 2020, published 2024).
Several values for one entry are separate records, joined by “and”; a condition that tells them apart may be missing. Equal entries are not always repeated. Where two headings read alike, the source gives them in different places.

Tests used:
[1] = test system: SARS2; format: cell-based, SARS-CoV-2; conditions: for Percentage Inhibition Average 1 μM / Screening data (Relative infection to DMSO controls) Average 1 μM: SARS2, 1 μM; for Screening data (Relative infection to DMSO controls) Average 1 μM / Screening data (Relative infection to DMSO controls) Average 5 μM / Screening data (Relative infection to DMSO controls) Average 10 μM / Screening data (Relative infection to DMSO controls) Average 25 μM / Screening data (Relative infection to DMSO controls) Average 50 μM / Average (relative infection to DMSO over the 5 tested concentrations): 100=DMSO control; for Percentage Inhibition Average 5 μM / Screening data (Relative infection to DMSO controls) Average 5 μM: SARS2, 5 μM; for Percentage Inhibition Average 10 μM / Screening data (Relative infection to DMSO controls) Average 10 μM: SARS2, 10 μM; for Percentage Inhibition Average 25 μM / Screening data (Relative infection to DMSO controls) Average 25 μM: SARS2, 25 μM; for Percentage Inhibition Average 50 μM / Screening data (Relative infection to DMSO controls) Average 50 μM: SARS2, 50 μM; for Average (relative infection to DMSO over the 5 tested concentrations): SARS2, average over 1 to 50 uM; for Percentage Infection Relative to Appropriate DMSO Control with Avg Background Subtraction: Nunc Celigo plates; for Infection Data, Average, Mean: average of Exp 1-2 (SMW491, SMW492)
[2] = test system: cells (nuclei count); conditions: for Relative cell count to DMSO controls, Average 1 μM / Relative cell count to DMSO controls, Average 5 μM / Relative cell count to DMSO controls, Average 10 μM / Relative cell count to DMSO controls, Average 25 μM / Relative cell count to DMSO controls, Average 50 μM: toxicity data, 100=DMSO control; for Relative cell count to DMSO controls, Average (for correlation analysis): average value over the 5 tested concentrations (1 to 50 uM); for Toxicity Data, Average, Mean percentage relative to DMSO control: Average of Exp 1 (SMW491) and Exp 2 (SMW492)

SMILES: CC1=C(C(=O)NCC2CCCCC2)C(c2cccs2)NC(=O)N1 (stereo not shown) [SILCS70]
- Percentage Inhibition Average 1 μM [1]: 71.98%
- Screening data (Relative infection to DMSO controls) Average 1 μM [1]: 28.02
- Percentage Inhibition Average 5 μM [1]: 38.83%
- Screening data (Relative infection to DMSO controls) Average 5 μM [1]: 61.17
- Percentage Inhibition Average 10 μM [1]: 10.99%
- Screening data (Relative infection to DMSO controls) Average 10 μM [1]: 89.01
- Percentage Inhibition Average 25 μM [1]: −45.91%
- Screening data (Relative infection to DMSO controls) Average 25 μM [1]: 145.91
- Percentage Inhibition Average 50 μM [1]: −47.89%
- Screening data (Relative infection to DMSO controls) Average 50 μM [1]: 147.89
- Average (relative infection to DMSO over the 5 tested concentrations) [1]: 94.40
- Relative cell count to DMSO controls, Average 1 μM [2]: 130.04
- Relative cell count to DMSO controls, Average 5 μM [2]: 111.32
- Relative cell count to DMSO controls, Average 10 μM [2]: 104.3
- Relative cell count to DMSO controls, Average 25 μM [2]: 93.9
- Relative cell count to DMSO controls, Average 50 μM [2]: 79.59
- Relative cell count to DMSO controls, Average (for correlation analysis) [2]: 103.83

SMILES: COc1ccc(-c2[nH]ncc2C(=O)NCC2CCCCC2)cc1OC [SILCS52]
- Percentage Inhibition Average 1 μM [1]: 7.72%
- Screening data (Relative infection to DMSO controls) Average 1 μM [1]: 92.28
- Percentage Inhibition Average 5 μM [1]: −17.76%
- Screening data (Relative infection to DMSO controls) Average 5 μM [1]: 117.76
- Percentage Inhibition Average 10 μM [1]: −4.43%
- Screening data (Relative infection to DMSO controls) Average 10 μM [1]: 104.43
- Percentage Inhibition Average 25 μM [1]: −20.98%
- Screening data (Relative infection to DMSO controls) Average 25 μM [1]: 120.98
- Percentage Inhibition Average 50 μM [1]: −22.98%
- Screening data (Relative infection to DMSO controls) Average 50 μM [1]: 122.98
- Average (relative infection to DMSO over the 5 tested concentrations) [1]: 111.69
- Relative cell count to DMSO controls, Average 1 μM [2]: 103.3
- Relative cell count to DMSO controls, Average 5 μM [2]: 97.63
- Relative cell count to DMSO controls, Average 10 μM [2]: 97.92
- Relative cell count to DMSO controls, Average 25 μM [2]: 94.91
- Relative cell count to DMSO controls, Average 50 μM [2]: 81.04
- Relative cell count to DMSO controls, Average (for correlation analysis) [2]: 94.96

SMILES: CCN(CC)CCN(Cc1ccccn1)C(=O)c1cccs1 [SILCS37]
- Percentage Infection Relative to Appropriate DMSO Control with Avg Background Subtraction ([1]; Exp 1 (SMW491), 1 uM): 88.98% and 80.18%
- Percentage Infection Relative to Appropriate DMSO Control with Avg Background Subtraction ([1]; Exp 1 (SMW491), 5 uM): 95.46% and 97.68%
- Percentage Infection Relative to Appropriate DMSO Control with Avg Background Subtraction ([1]; Exp 1 (SMW491), 10 uM): 109.85% and 92.25%
- Percentage Infection Relative to Appropriate DMSO Control with Avg Background Subtraction ([1]; Exp 1 (SMW491), 25 uM): 117.51% and 105.36%
- Percentage Infection Relative to Appropriate DMSO Control with Avg Background Subtraction ([1]; Exp 1 (SMW491), 50 uM): 136.02% and 127.57%
- Percentage Infection Relative to Appropriate DMSO Control with Avg Background Subtraction ([1]; Exp 2 (SMW492), 1 uM): 80.82% and 84.84%
- Percentage Infection Relative to Appropriate DMSO Control with Avg Background Subtraction ([1]; Exp 2 (SMW492), 5 uM): 71.36% and 74.06%
- Percentage Infection Relative to Appropriate DMSO Control with Avg Background Subtraction ([1]; Exp 2 (SMW492), 25 uM): 121.75% and 63.91%
- Percentage Infection Relative to Appropriate DMSO Control with Avg Background Subtraction ([1]; Exp 2 (SMW492), 50 uM): 88.75% and 46.65%
- Percentage Inhibition Average 1 μM [1]: 16.29%
- Screening data (Relative infection to DMSO controls) Average 1 μM [1]: 83.71
- Percentage Inhibition Average 5 μM [1]: 15.36%
- Screening data (Relative infection to DMSO controls) Average 5 μM [1]: 84.64
- Percentage Inhibition Average 10 μM [1]: 23.94%
- Screening data (Relative infection to DMSO controls) Average 10 μM [1]: 76.06
- Percentage Inhibition Average 25 μM [1]: −2.13%
- Screening data (Relative infection to DMSO controls) Average 25 μM [1]: 102.13
- Percentage Inhibition Average 50 μM [1]: 0.25%
- Screening data (Relative infection to DMSO controls) Average 50 μM [1]: 99.75
- Average (relative infection to DMSO over the 5 tested concentrations) [1]: 89.26
- Infection Data, Average, Mean ([1]; n 4, 1 uM): 83.71%
- Infection Data, Average, Mean ([1]; n 4, 5 uM): 84.64%
- Infection Data, Average, Mean ([1]; n 4, 10 uM): 76.06%
- Infection Data, Average, Mean ([1]; n 4, 25 uM): 102.13%
- Infection Data, Average, Mean ([1]; n 4, 50 uM): 99.75%
- Relative cell count to DMSO controls, Average 1 μM [2]: 108.95
- Relative cell count to DMSO controls, Average 5 μM [2]: 110.16
- Relative cell count to DMSO controls, Average 10 μM [2]: 116.31
- Relative cell count to DMSO controls, Average 25 μM [2]: 104.07
- Relative cell count to DMSO controls, Average 50 μM [2]: 75.29
- Toxicity Data, Average, Mean percentage relative to DMSO control ([2]; n=4, 1 uM): 108.95%
- Toxicity Data, Average, Mean percentage relative to DMSO control ([2]; n=4, 5 uM): 110.16%
- Toxicity Data, Average, Mean percentage relative to DMSO control ([2]; n=4, 10 uM): 116.31%
- Toxicity Data, Average, Mean percentage relative to DMSO control ([2]; n=4, 25 uM): 104.07%
- Toxicity Data, Average, Mean percentage relative to DMSO control ([2]; n=4, 50 uM): 75.29%
- Relative cell count to DMSO controls, Average (for correlation analysis) [2]: 102.96
